Data reported in the NIST ThermoML archive (doi:10.1016/j.tca.2016.08.008).

O=P([O-])([O-])[O-].[Tb+3] [terbium orthophosphate]
101.33 kPa, Metastable crystal
Conditions	mass density [kg/m3]	molar entropy [J/K/mol]
7 K, Vacuum adiabatic calorimetry	–	0.0744
8 K, Vacuum adiabatic calorimetry	–	0.1113
9 K, Vacuum adiabatic calorimetry	–	0.1586
10 K, Vacuum adiabatic calorimetry	–	0.2174
12 K, Vacuum adiabatic calorimetry	–	0.3747
14 K, Vacuum adiabatic calorimetry	–	0.5915
16 K, Vacuum adiabatic calorimetry	–	0.8724
18 K, Vacuum adiabatic calorimetry	–	1.219
20 K, Vacuum adiabatic calorimetry	–	1.627
25 K, Vacuum adiabatic calorimetry	–	2.889
30 K, Vacuum adiabatic calorimetry	–	4.414
35 K, Vacuum adiabatic calorimetry	–	6.129
40 K, Vacuum adiabatic calorimetry	–	7.99
45 K, Vacuum adiabatic calorimetry	–	9.975
50 K, Vacuum adiabatic calorimetry	–	12.07
55 K, Vacuum adiabatic calorimetry	–	14.26
60 K, Vacuum adiabatic calorimetry	–	16.53
70 K, Vacuum adiabatic calorimetry	–	21.26
80 K, Vacuum adiabatic calorimetry	–	26.15
90 K, Vacuum adiabatic calorimetry	–	31.12
100 K, Vacuum adiabatic calorimetry	–	36.12
110 K, Vacuum adiabatic calorimetry	–	41.09
120 K, Vacuum adiabatic calorimetry	–	46.02
130 K, Vacuum adiabatic calorimetry	–	50.9
140 K, Vacuum adiabatic calorimetry	–	55.72
150 K, Vacuum adiabatic calorimetry	–	60.46
160 K, Vacuum adiabatic calorimetry	–	65.13
170 K, Vacuum adiabatic calorimetry	–	69.73
180 K, Vacuum adiabatic calorimetry	–	74.26
190 K, Vacuum adiabatic calorimetry	–	78.71
200 K, Vacuum adiabatic calorimetry	–	83.09
210 K, Vacuum adiabatic calorimetry	–	87.39
220 K, Vacuum adiabatic calorimetry	–	91.63
230 K, Vacuum adiabatic calorimetry	–	95.79
240 K, Vacuum adiabatic calorimetry	–	99.88
250 K, Vacuum adiabatic calorimetry	–	103.9
260 K, Vacuum adiabatic calorimetry	–	107.9
270 K, Vacuum adiabatic calorimetry	–	111.7
280 K, Vacuum adiabatic calorimetry	–	115.6
290 K, Vacuum adiabatic calorimetry	–	119.3
298 K, X-ray diffraction	6088	–
300 K, Vacuum adiabatic calorimetry	–	123
310 K, Vacuum adiabatic calorimetry	–	126.6
320 K, Vacuum adiabatic calorimetry	–	130.2
325 K, Vacuum adiabatic calorimetry	–	132
340 K, Small sample (50 mg) DSC	–	137.1
360 K, Small sample (50 mg) DSC	–	143.9
380 K, Small sample (50 mg) DSC	–	150.4
400 K, Small sample (50 mg) DSC	–	156.7
420 K, Small sample (50 mg) DSC	–	162.7
440 K, Small sample (50 mg) DSC	–	168.6
460 K, Small sample (50 mg) DSC	–	174.3
480 K, Small sample (50 mg) DSC	–	179.8
500 K, Small sample (50 mg) DSC	–	185.2
520 K, Small sample (50 mg) DSC	–	190.4
540 K, Small sample (50 mg) DSC	–	195.4
560 K, Small sample (50 mg) DSC	–	200.3
580 K, Small sample (50 mg) DSC	–	205.1
600 K, Small sample (50 mg) DSC	–	209.7
620 K, Small sample (50 mg) DSC	–	214.2
640 K, Small sample (50 mg) DSC	–	218.6
660 K, Small sample (50 mg) DSC	–	222.8
680 K, Small sample (50 mg) DSC	–	227
700 K, Small sample (50 mg) DSC	–	231
720 K, Small sample (50 mg) DSC	–	235
740 K, Small sample (50 mg) DSC	–	238.8
760 K, Small sample (50 mg) DSC	–	242.6
780 K, Small sample (50 mg) DSC	–	246.2
800 K, Small sample (50 mg) DSC	–	249.8
820 K, Small sample (50 mg) DSC	–	253.3
840 K, Small sample (50 mg) DSC	–	256.8
860 K, Small sample (50 mg) DSC	–	260.1
880 K, Small sample (50 mg) DSC	–	263.4
900 K, Small sample (50 mg) DSC	–	266.7
920 K, Small sample (50 mg) DSC	–	269.8
940 K, Small sample (50 mg) DSC	–	272.9
960 K, Small sample (50 mg) DSC	–	275.9
980 K, Small sample (50 mg) DSC	–	278.9
1000 K, Small sample (50 mg) DSC	–	281.8
1009 K, Small sample (50 mg) DSC	–	283.1

Conditions	Triple point temperature [K]
Crystal 2, DSC	1643
